{"source": "patent US8049013B2", "about": "“5- [4-(azetidin-3-yloxy)-phenyl]-2-phenyl-5H-thiazolo[5,4-C] pyridin-4-one derivatives and their use as MCH receptor antagonists” (Eli Lilly and Company, priority 2006, dated 2011)", "key": {"[1]": {"target": "T1, human MCHR1 (Homo sapiens, UniProt Q99705)", "T1 construct": "expressed in transfected cells; host or cells: AV-12 cells (clone 43), membranes", "T1 sequence (Q99705 whole entry)": "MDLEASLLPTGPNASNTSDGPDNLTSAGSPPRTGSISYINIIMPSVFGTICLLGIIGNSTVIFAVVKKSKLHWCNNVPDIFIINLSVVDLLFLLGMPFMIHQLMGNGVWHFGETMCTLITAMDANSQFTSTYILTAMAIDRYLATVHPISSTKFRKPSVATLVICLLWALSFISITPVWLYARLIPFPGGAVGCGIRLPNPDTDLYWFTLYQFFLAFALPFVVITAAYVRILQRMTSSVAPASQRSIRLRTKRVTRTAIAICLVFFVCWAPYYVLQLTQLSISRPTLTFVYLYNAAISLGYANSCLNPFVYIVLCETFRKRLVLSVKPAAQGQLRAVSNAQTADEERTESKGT", "test": "Functional GTPγ35S binding assay: inhibition of MCH-stimulated GTPγ35S binding to membranes of AV-12 cells expressing human MCHR1", "assay_type": "biochemical", "conditions": "Kb from IC50 by modified Cheng-Prusoff (Leff and Dougal)", "from_the_text": "(§1) One of skill in the art is able to perform both the ^125I-MCH binding and functional GTPγ^35S binding assays using the procedures herein or procedures disclosed in the art. For binding assay, see for example, Macdonald, D., et al., 2000. Molecular characterization of the melanin-concentrating hormone/receptor complex: identification of critical residues involved in binding and activation. Mol Pharmacol 58, 217-225. For GTPgammaS functional assay, see for example, Gao, X., et al., 2004. Europium-labeled melanin-concentrating hormone analogues: ligands for measuring binding to melanin-concentrating hormone receptors 1 and 2. Anal Biochem 328, 187-195.\nFunctional antagonism of MCH activity is assessed by measuring the ability of a test compound to inhibit MCH-stimulated binding of GTPγ^35S to membranes isolated from AV-12 cells expressing the human MCHR1 using a scintillation proximity assay. […] After verifying competitive antagonism by Schild analysis, Kb values are calculated from the IC50 values for each antagonist and the EC50 for MCH (determined independently) using a modification of the Cheng-Prusoff approximation as described by Leff and Dougal (Trends Pharmacol. Sci. (1993) 14: 110-112). […]"}, "[2]": {"test": "In vivo efficacy in diet-induced obese male Long-Evans rats, oral gavage once a day for 3 days", "conditions": "10 mg/Kg oral", "procedure": "Animals are housed individually in a temperature regulated room (24° C.) with a reverse 12 hour light/dark cycle (dark 10:00/22:00). Water and food (Teklad 95217, Harlan, Wis.) were available ad libitum. Compounds are administered orally in a vehicle that consists of 10% acacia and 0.15% saccharin in water once a day before onset of the dark period for 3 days. Food intake and body weight are measured daily for the 3 day period. The compound of Example 29 produces an average body weight reduction of about 7 grams at a dose of 10 mg/Kg when compared to vehicle control."}, "[3]": {"target": "T1, human MCHR1", "test": "125I-MCH competitive binding assay (scintillation proximity), membranes of AV-12 cells transfected with human MCHR1", "conditions": "Ki calculated from IC50 by Cheng-Prusoff, average", "from_the_text": "as §1\nBinding of compounds to MCHR1 is assessed in a competitive binding assay employing ^125I-MCH, compound of the invention, and clone 43 membranes using scintillation proximity techniques. IC50 values (defined as the concentration of test compound required to reduce specific binding of ^125I-MCH by 50%) are determined by fitting the concentration-response data to a 4-parameter model (max response, min response, Hill coefficient, IC50) using a spreadsheet."}}, "note": "Structures can show the parent of a compound that is named as a salt.", "data": [{"compound": "COc1cc(N2CCc3nc(-c4ccc(Cl)cc4)sc3C2=O)ccc1OC1CN(C(C)C)C1", "note": "[Example 28, 2-(4-Chloro-phenyl)-5-[4-(1-isopropyl-azetidin-3-yloxy)-3-methoxy-phenyl]-6,7-dihydro-5H-thiazolo[5,4-c]pyridin-4-one, hydrochloride salt]", "values": [{"measurement": "Kb", "setting": "[1]", "result": "~6", "unit": "nM"}]}, {"compound": "COc1cc(N2CCc3nc(-c4ccc(Cl)cc4)sc3C2=O)ccc1OC1CN(C2CCC2)C1.Cl", "note": "[Example 29, 2-(4-Chloro-phenyl)-5-[4-(l-cyclobutyl-azetidin-3-yloxy)-3-methoxy-phenyl]-6,7-dihydro-5H-thiazolo[5,4-c]pyridin-4-one, hydrochloride salt]", "values": [{"measurement": "average body weight reduction when compared to vehicle control", "setting": "[2]", "result": "about 7 grams"}]}, {"compound": "COc1cc(N2CCc3nc(-c4ccc(Cl)cc4)sc3C2=O)ccc1OC1CN(C2CC2)C1", "note": "[Example 37, 2-(4-Chloro-phenyl)-5-[4-(1-cyclopropyl-azetidin-3-yloxy)-3-methoxy-phenyl]-6,7-dihydro-5H-thiazolo[5,4-c]pyridin-4-one, hydrochloride salt]", "values": [{"measurement": "Ki", "setting": "[3]", "result": "~4", "unit": "nM"}]}]}
